# Target: IKZF2 (Homo sapiens (Human), UniProt Q96SW2+Q9UKS7)
# Assay: IKZF2 HiBiT Assay (Jurkat-IKZF2-HiBiT cell line)
# Type: cell-based
# Details: Jurkat-IKZF2-HiBiT cells, 24 hours; for DC50: read-out: HiBit assay degradation analysis DC50; for Dmax: read-out: HiBit assay degradation analysis Dmax
# Procedure: Degradation of IKZF2 protein is determined by IKZF2 HiBiT assay using the Jurkat-IKZF2-HiBiT (Promega) cell line. Briefly, cells are seeded in culture medium. Compounds are serially diluted in culture medium, and certain volume of the diluted compounds is added to the appropriate well of the plate. After the addition of compounds, the cells are incubated. At the end of treatment, Nano-Glo HiBiT Lytic Detection Reagent (Promega) is added to each well, and then the plates are incubated at room temperature for a certain time period. The luminescent signal is measured using a CALRIOstar plate reader (BMG Labtech). The readings are normalized to the DMSO-treated cells and the IC50 is calculated by nonlinear regression (four parameters sigmoid fitted with variable slope, least squares fit, and no constraint) analysis using the GraphPad Prism 8 software.
# Degradation of IKZF2 protein was determined by IKZF2 HiBiT assay using the Jurkat-IKZF2-HiBiT (Promega) cell line. […] Compounds were serially diluted in culture medium, and 20 μl of the diluted compounds were added to the appropriate wells of the plate. After the addition of compounds, the cells were incubated at 37° C. in an atmosphere of 5% CO2 for 24 hours. At the end of treatment, 40 ul of Nano-Glo HiBiT Lytic Detection Reagent (Promega) was added to each well, and then the plates were incubated at room temperature for 10-20 minutes. The luminescent signal was measured using a CALRIOstar plate reader (BMG Labtech). The readings were normalized to the DMSO-treated cells and the IC50 was calculated by nonlinear regression (four parameters sigmoid fitted with variable slope, least squares fit, and no constraint) analysis using the GraphPad Prism 8 software.
# Sequence of IKZF2 (Q9UKS7 whole entry): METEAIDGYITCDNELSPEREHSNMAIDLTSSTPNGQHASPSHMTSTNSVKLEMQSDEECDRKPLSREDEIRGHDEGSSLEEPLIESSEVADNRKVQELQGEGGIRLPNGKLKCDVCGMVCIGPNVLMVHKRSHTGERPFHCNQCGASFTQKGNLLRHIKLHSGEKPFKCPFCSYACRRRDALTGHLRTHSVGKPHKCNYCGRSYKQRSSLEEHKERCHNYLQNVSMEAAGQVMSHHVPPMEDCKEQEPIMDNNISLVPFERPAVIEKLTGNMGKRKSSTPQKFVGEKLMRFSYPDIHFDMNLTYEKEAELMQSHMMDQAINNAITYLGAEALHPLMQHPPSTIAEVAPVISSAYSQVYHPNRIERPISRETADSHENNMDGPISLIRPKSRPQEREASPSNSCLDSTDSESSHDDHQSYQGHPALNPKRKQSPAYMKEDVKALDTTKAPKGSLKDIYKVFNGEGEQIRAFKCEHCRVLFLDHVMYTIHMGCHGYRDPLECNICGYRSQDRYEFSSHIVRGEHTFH
# Sequence of IKZF2 (Q96SW2 whole entry): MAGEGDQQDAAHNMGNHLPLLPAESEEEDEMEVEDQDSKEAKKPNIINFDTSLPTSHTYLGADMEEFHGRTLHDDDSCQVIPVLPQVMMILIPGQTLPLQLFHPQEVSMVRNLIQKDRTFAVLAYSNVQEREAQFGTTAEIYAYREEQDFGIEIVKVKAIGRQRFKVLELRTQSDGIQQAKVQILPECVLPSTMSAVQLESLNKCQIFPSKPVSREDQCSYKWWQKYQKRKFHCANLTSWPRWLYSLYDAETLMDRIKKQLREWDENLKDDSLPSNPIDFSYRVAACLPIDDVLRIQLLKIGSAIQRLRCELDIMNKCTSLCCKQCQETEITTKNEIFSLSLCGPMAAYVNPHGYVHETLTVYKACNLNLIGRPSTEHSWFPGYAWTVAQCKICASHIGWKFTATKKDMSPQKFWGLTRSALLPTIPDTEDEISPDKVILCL
# Sequence of IKZF2 (Q16531 whole entry partner): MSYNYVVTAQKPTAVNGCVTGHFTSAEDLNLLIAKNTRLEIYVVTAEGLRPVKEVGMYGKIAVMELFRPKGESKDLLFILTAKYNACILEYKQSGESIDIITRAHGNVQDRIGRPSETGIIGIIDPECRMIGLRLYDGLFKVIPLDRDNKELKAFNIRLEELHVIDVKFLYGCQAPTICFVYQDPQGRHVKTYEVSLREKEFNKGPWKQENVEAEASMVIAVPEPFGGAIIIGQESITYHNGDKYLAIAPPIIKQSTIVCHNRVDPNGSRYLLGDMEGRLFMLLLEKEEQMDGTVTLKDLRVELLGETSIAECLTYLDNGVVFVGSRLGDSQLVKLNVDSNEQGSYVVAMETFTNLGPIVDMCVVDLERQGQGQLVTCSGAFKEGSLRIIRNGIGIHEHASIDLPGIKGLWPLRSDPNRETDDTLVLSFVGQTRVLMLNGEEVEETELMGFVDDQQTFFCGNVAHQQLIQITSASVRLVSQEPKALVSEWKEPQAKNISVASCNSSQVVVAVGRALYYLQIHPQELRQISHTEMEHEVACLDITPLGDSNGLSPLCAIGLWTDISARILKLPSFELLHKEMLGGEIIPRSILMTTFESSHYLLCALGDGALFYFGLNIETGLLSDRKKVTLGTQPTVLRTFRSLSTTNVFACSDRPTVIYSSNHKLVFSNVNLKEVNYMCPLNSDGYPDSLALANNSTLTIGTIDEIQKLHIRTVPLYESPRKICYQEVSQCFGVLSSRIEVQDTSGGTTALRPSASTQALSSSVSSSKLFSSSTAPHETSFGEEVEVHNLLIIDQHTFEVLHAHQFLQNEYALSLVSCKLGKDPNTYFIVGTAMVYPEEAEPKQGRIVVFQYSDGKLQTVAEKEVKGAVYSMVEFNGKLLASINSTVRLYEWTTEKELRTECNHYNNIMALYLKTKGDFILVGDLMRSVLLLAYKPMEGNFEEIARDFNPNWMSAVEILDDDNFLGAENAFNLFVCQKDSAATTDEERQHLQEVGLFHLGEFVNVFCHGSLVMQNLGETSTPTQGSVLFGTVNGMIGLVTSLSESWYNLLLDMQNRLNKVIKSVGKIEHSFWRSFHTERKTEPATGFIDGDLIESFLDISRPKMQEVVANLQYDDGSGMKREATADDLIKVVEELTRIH
Compound,DC50,Dmax
"O=C1CCC(N2Cc3c(ccc4c3OCC43CCN(Cc4cccc5nccnc45)CC3)C2=O)C(=O)N1 (stereo not shown) [Compound A47, 3-(6-oxo-1′-(quinoxalin-5-ylmethyl)-6,8-dihydro-2H,7H-spiro[furo[2,3-e]isoindole-3,4′-piperidin]-7-yl)piperidine-2,6-dione]",> 500 nM,40 to 60%
"O=C1CCC(N2Cc3c(ccc4c3OCC43CCN(Cc4ccc5nccnc5c4)CC3)C2=O)C(=O)N1 (stereo not shown) [Compound A48, 3-(6-oxo-1′-(quinoxalin-6-ylmethyl)-6,8-dihydro-2H,7H-spiro[furo[2,3-e]isoindole-3,4′-piperidin]-7-yl)piperidine-2,6-dione]",> 500 nM,< 40%
"O=C1CCC(N2Cc3c(ccc4c3OCC43CCN(Cc4cccc5cccc(F)c45)CC3)C2=O)C(=O)N1 (stereo not shown) [Compound A50, 3-(1′-((8-fluoronaphthalen-1-yl)methyl)-6-oxo-6,8-dihydro-2H,7H-spiro[furo[2,3-e]isoindole-3,4′-piperidin]-7-yl)piperidine-2,6-dione]",< 50 nM,60 to 80%
"Cn1ncc2cccc(CN3CCC4(CC3)COc3c4ccc4c3CN(C3CCC(=O)NC3=O)C4=O)c21 (stereo not shown) [Compound A53, 3-(1′-((1-methyl-1H-indazol-7-yl)methyl)-6-oxo-6,8-dihydro-2H,7H-spiro[furo[2,3-e]isoindole-3,4′-piperidin]-7-yl)piperidine-2,6-dione]",> 500 nM,40 to 60%
"O=C1CCC(N2Cc3c(ccc4c3OCC43CCN(Cc4ccc5scnc5c4)CC3)C2=O)C(=O)N1 (stereo not shown) [Compound A54, 3-(1′-(benzo[d]thiazol-5-ylmethyl)-6-oxo-6,8-dihydro-2H,7H-spiro[furo[2,3-e]isoindole-3,4′-piperidin]-7-yl)piperidine-2,6-dione]",50 to 200 nM,40 to 60%
"Cn1ncc2ccc(CN3CCC4(CC3)COc3c4ccc4c3CN(C3CCC(=O)NC3=O)C4=O)cc21 (stereo not shown) [Compound A57, 3-(1′-((1-methyl-1H-indazol-6-yl)methyl)-6-oxo-6,8-dihydro-2H,7H-spiro[furo[2,3-e]isoindole-3,4′-piperidin]-7-yl)piperidine-2,6-dione]",50 to 200 nM,60 to 80%
"O=C1CCC(N2Cc3c(ccc4c3OCC43CCN(Cc4cccn5nccc45)CC3)C2=O)C(=O)N1 (stereo not shown) [Compound A58, 3-(6-oxo-1′-(pyrazolo[1,5-a]pyridin-4-ylmethyl)-6,8-dihydro-2H,7H-spiro[furo[2,3-e]isoindole-3,4′-piperidin]-7-yl)piperidine-2,6-dione]",> 500 nM,40 to 60%
"O=C1CCC(N2Cc3c(ccc4c3OCC43CCN(Cc4cccc5cc[nH]c45)CC3)C2=O)C(=O)N1 (stereo not shown) [Compound A59, 3-(1′-((1H-indol-7-yl)methyl)-6-oxo-6,8-dihydro-2H,7H-spiro[furo[2,3-e]isoindole-3,4′-piperidin]-7-yl)piperidine-2,6-dione]",50 to 200 nM,> 80%
"O=C1CCC(N2Cc3c(ccc4c3OCC43CCN(Cc4ccc5oncc5c4)CC3)C2=O)C(=O)N1 (stereo not shown) [Compound A60, 3-(1′-(benzo[d]isoxazol-5-ylmethyl)-6-oxo-6,8-dihydro-2H,7H-spiro[furo[2,3-e]isoindole-3,4′-piperidin]-7-yl)piperidine-2,6-dione]",> 500 nM,40 to 60%
"O=C1CCC(N2Cc3c(ccc4c3OCC43CCN(Cc4ccc5ncsc5c4)CC3)C2=O)C(=O)N1 (stereo not shown) [Compound A62, 3-(1′-(benzo[d]thiazol-6-ylmethyl)-6-oxo-6,8-dihydro-2H,7H-spiro[furo[2,3-e]isoindole-3,4′-piperidin]-7-yl)piperidine-2,6-dione]",200 to 500 nM,40 to 60%
"O=C1CCC(N2Cc3c(ccc4c3OCC43CCN(Cc4ccc5cccnc5c4)CC3)C2=O)C(=O)N1 (stereo not shown) [Compound A64, 3-(6-oxo-1′-(quinolin-7-ylmethyl)-6,8-dihydro-2H,7H-spiro[furo[2,3-e]isoindole-3,4′-piperidin]-7-yl)piperidine-2,6-dione]",50 to 200 nM,60 to 80%
"O=C1CCC(N2Cc3c(ccc4c3OCC43CCN(Cc4ccc5cnccc5c4)CC3)C2=O)C(=O)N1 (stereo not shown) [Compound A65, 3-(1′-(isoquinolin-6-ylmethyl)-6-oxo-6,8-dihydro-2H,7H-spiro[furo[2,3-e]isoindole-3,4′-piperidin]-7-yl)piperidine-2,6-dione]",> 500 nM,40 to 60%
"O=C1CCC(N2Cc3c(ccc4c3OCC43CCN(Cc4ccc5cc[nH]c5n4)CC3)C2=O)C(=O)N1 (stereo not shown) [Compound A66, 3-(1′-((1H-pyrrolo[2,3-b]pyridin-6-yl)methyl)-6-oxo-6,8-dihydro-2H,7H-spiro[furo[2,3-e]isoindole-3,4′-piperidin]-7-yl)piperidine-2,6-dione]",> 500 nM,40 to 60%
"Cn1cc2c(CN3CCC4(CC3)COc3c4ccc4c3CN(C3CCC(=O)NC3=O)C4=O)cccc2n1 (stereo not shown) [Compound A67, 3-(1′-((2-methyl-2H-indazol-4-yl)methyl)-6-oxo-6,8-dihydro-2H,7H-spiro[furo[2,3-e]isoindole-3,4′-piperidin]-7-yl)piperidine-2,6-dione]",50 to 200 nM,60 to 80%
"Cn1cc2cc(CN3CCC4(CC3)COc3c4ccc4c3CN(C3CCC(=O)NC3=O)C4=O)ccc2n1 (stereo not shown) [Compound A68, 3-(1′-((2-methyl-2H-indazol-5-yl)methyl)-6-oxo-6,8-dihydro-2H,7H-spiro[furo[2,3-e]isoindole-3,4′-piperidin]-7-yl)piperidine-2,6-dione]",> 500 nM,40 to 60%
"O=C1CCC(N2Cc3c(ccc4c3OCC43CCN(Cc4ccc5[nH]cnc5c4)CC3)C2=O)C(=O)N1 (stereo not shown) [Compound A70, 3-(1′-((1H-benzo[d]imidazol-5-yl)methyl)-6-oxo-6,8-dihydro-2H,7H-spiro[furo[2,3-e]isoindole-3,4′-piperidin]-7-yl)piperidine-2,6-dione]",200 to 500 nM,60 to 80%
"O=C1CCC(N2Cc3c(ccc4c3OCC43CCN(Cc4cccc5[nH]cnc45)CC3)C2=O)C(=O)N1 (stereo not shown) [Compound A71, 3-(1′-((1H-benzo[d]imidazol-4-yl)methyl)-6-oxo-6,8-dihydro-2H,7H-spiro[furo[2,3-e]isoindole-3,4′-piperidin]-7-yl)piperidine-2,6-dione]",> 500 nM,40 to 60%
"Cn1cnc2ccc(CN3CCC4(CC3)COc3c4ccc4c3CN(C3CCC(=O)NC3=O)C4=O)cc21 (stereo not shown) [Compound A72, 3-(1′-((1-methyl-1H-benzo[d]imidazol-6-yl)methyl)-6-oxo-6,8-dihydro-2H,7H-spiro[furo[2,3-e]isoindole-3,4′-piperidin]-7-yl)piperidine-2,6-dione]",> 500 nM,40 to 60%
"O=C1CCC(N2Cc3c(ccc4c3OCC43CCN(Cc4ccnc5[nH]ccc45)CC3)C2=O)C(=O)N1 (stereo not shown) [Compound A73, 3-(1′-((1H-pyrrolo[2,3-b]pyridin-4-yl)methyl)-6-oxo-6,8-dihydro-2H,7H-spiro[furo[2,3-e]isoindole-3,4′-piperidin]-7-yl)piperidine-2,6-dione]",> 500 nM,40 to 60%
"Cn1ccc2cccc(CN3CCC4(CC3)COc3c4ccc4c3CN(C3CCC(=O)NC3=O)C4=O)c21 (stereo not shown) [Compound A74, 3-(1′-((1-methyl-1H-indol-7-yl)methyl)-6-oxo-6,8-dihydro-2H,7H-spiro[furo[2,3-e]isoindole-3,4′-piperidin]-7-yl)piperidine-2,6-dione]",50 to 200 nM,60 to 80%
